Measurements reported in patent US20120316346A1, “SELENALZOLE DERIVATIVE HAVING LIGAND WHICH ACTIVATES PEROXISOME PROLIFERATOR ACTIVATED RECEPTOR (PPAR), PREPARING METHOD THEREOF AND USAGE OF THE CHEMICAL COMPOUNDS” (SNU R & DB FOUNDATION, priority 2010, published 2012).

Tests used:
hPPARγ = target: T1, hPPARγ (Homo sapiens, UniProt P37231); test: Transfection assay (luciferase reporter, full-length PPAR plasmid) in CV-1 cells, PPARγ selectivity; assay type: cell-based; conditions: 24 hours
T1 sequence (P37231 1-505): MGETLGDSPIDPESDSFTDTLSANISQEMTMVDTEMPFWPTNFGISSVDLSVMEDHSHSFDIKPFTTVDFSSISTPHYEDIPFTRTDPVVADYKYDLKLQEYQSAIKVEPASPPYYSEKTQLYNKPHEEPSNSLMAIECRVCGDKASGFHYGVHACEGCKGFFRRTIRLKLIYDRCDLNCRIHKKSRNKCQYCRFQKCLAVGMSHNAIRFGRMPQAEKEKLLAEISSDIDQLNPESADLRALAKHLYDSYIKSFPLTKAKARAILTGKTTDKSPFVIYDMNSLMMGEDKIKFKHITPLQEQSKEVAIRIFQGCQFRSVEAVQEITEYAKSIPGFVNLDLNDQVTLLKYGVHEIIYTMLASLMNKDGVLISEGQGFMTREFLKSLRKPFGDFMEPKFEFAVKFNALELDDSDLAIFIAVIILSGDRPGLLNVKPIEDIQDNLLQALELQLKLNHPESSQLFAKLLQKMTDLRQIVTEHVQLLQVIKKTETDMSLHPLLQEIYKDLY
Procedure: (§1) PPARδ activation effect of the compound represented by Chemical Formula I according to the present invention was identified by transfection assay. Further, selectivity test for other PPAR subtypes PPARα and PPARγ, toxicity test by MTT assay, and in vivo activity test through animal experiment were carried out. CV-1 cells were used for transfection assay. The cells were cultured in a 5% CO2 incubator at 37° C., on a 96-well plate using DMEM medium containing 10% FBS, DBS (delipidated) and 1% penicillin/streptomycin. Experiment was performed in four stages of cell inoculation, transfection, treatment with the compound of the present invention, and confirmation of result. The CV-1 cells inoculated onto a 96-well plate at 5,000 cells/well, and transfected 24 hours later. Transfection assay was performed using full-length PPAR plasmid DNA, reporter DNA having luciferase activity and thus capable of identifying PPAR activity, and β-galactosidase DNA which gives information about transfection efficiency. […] After culturing for 24 hours in an incubator, the cells were lysed using lysis buffer, and luciferase and β-galactosidase activity was measured using a luminometer and a microplate reader. The measured luciferase data were corrected using the β-galactosidase data, and were plotted to calculate the EC50 value.

ApoE−/− mice = test: Atherosclerosis inhibiting effect, ApoE−/− mice (Sudan IV arterial plaque staining); assay type: in vivo; conditions: ApoE−/− mouse, high-fat high-cholesterol feed, 2 mg/kg/day oral, 28 days
Procedure: (§2) In order to test atherosclerosis inhibiting effect of the compound according to the present invention, in vivo experiment was carried out using atherosclerosis animal model ApoE−/−, Ldlr−/−mice. While giving high-fat, high-cholesterol feed (20% fat, 1.25% cholesterol; AIN-93G diet), the compound of the present invention (Compound S185) was orally administered at 2 mg/kg/day. 28 days later, arterial plaque was stained using Sudan IV, and the atherosclerosis inhibiting effect was compared with the control group.

C57BL/6 mouse [1] = test: Fatty liver treating effect, high-fat feed mice (H&E liver staining); assay type: in vivo; conditions: 35% fat feed 78 days, 10 mg/kg/day oral
Procedure: Animal (8-week-old C57BL/6 mouse) experiment was carried out in order to test fatty liver treating effect of the compound according to the present invention. Feed containing 35% fat was used to induce fatty liver. While giving the high-fat feed for 78 days, Compound S185 was orally administered (10 mg/kg/day). At the end of the experiment, liver tissue was harvested and fixed in paraformaldehyde solution and then stained with hematoxylin and eosin.

Ldlr−/− mice = test: Atherosclerosis inhibiting effect, Ldlr−/− mice (Sudan IV arterial plaque staining); assay type: in vivo; conditions: Ldlr−/− mouse, high-fat high-cholesterol feed, 2 mg/kg/day oral, 28 days
Procedure: as §2

[2] = Diabetes improving effect, glucose tolerance test (GTT); assay type: in vivo, mouse; conditions: for Fasting glucose level as compared to the control group: 10 mg/kg/day oral for 57 days; for Diabetes improving effect: GTT, overall conclusion
Procedure: In order to test diabetes improving effect of the compound according to the present invention, glucose tolerance test (GTT) was carried out. To a mouse to which the test compound had been orally administered for 57 days, glucose (1.5 g/kg) was abdominally administered and change of blood glucose level was monitored.

hPPARα = target: T2, hPPARα (Homo sapiens, UniProt Q07869); test: Transfection assay (luciferase reporter, full-length PPAR plasmid) in CV-1 cells, PPARα selectivity; assay type: cell-based; conditions: 24 hours
T2 sequence (Q07869 1-468): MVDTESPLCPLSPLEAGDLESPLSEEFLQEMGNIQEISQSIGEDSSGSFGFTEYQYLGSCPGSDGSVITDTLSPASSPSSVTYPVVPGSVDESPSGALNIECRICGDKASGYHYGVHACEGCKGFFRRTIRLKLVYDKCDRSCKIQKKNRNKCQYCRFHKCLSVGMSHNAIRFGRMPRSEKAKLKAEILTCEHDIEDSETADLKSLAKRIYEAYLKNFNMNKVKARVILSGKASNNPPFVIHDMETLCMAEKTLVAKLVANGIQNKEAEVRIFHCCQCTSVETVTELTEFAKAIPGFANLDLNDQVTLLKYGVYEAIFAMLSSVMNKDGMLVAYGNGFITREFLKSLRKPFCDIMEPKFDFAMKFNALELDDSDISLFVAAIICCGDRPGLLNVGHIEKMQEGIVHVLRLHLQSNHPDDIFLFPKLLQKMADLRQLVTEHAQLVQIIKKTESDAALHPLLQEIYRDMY
Procedure: as §1

hPPARδ = target: T3, hPPARδ (Homo sapiens, UniProt Q03181); test: Transfection assay (luciferase reporter, full-length PPAR plasmid) in CV-1 cells, PPARδ; assay type: cell-based; conditions: 24 hours
T3 sequence (Q03181 1-441): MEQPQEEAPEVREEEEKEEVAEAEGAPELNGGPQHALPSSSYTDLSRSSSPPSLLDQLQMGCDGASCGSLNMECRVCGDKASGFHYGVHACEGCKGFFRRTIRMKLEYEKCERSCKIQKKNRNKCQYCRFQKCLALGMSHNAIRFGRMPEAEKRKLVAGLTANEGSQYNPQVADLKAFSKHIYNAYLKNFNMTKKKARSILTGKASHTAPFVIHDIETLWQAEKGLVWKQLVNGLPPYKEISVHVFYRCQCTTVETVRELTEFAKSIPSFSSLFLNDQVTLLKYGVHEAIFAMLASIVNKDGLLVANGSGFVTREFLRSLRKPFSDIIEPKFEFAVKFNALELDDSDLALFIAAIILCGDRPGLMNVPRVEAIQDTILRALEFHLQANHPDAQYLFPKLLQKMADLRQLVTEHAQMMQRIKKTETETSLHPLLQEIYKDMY
Procedure: as §1

[3] = Obesity inhibiting effect, high-fat feed mice; assay type: in vivo, mouse; conditions: C57BL/6 mice, 35% fat feed 60 days, 10 mg/kg/day oral
Procedure: In order to test in vivo effect of the compound according to the present invention, experiment was carried out using mouse. 8-week-old C57BL/6 (SLC Co.) mice were used and feed containing 35% fat was used to induce obesity. While giving the high-fat feed for 60days, vehicle, Compound S185 or Compound S186 was orally administered (10 mg/kg/day).

mouse = test: Muscle endurance test (treadmill) after administration during pregnancy, lactation or both; assay type: in vivo; conditions: for Body weight or growth rate of the fetus, treated versus control group / Type I muscle fiber (ATPase staining and immunostaining): 10 mg/kg/day oral during pregnancy, lactation or both; for Increase compared to control, Distance / Increase compared to control, Time: treadmill, 10 mg/kg/day oral
Procedure: Animal experiment was carried out in order to test muscle endurance strengthening and muscle function improving effect of the compound according to the present invention. Since muscle formation occurs mostly in the developmental stage, Compound S185 or S186 (10 mg/kg/day) was orally administered to a mouse during pregnancy, lactation or both. No difference in body weight or growth rate of the fetus was observed between the control group and the treated group. When the muscle was observed after removing the skin, the muscle of the treated group was redder than the control group. […] In order to confirm the effect of the change in the muscle fiber on improvement of muscle endurance and muscle function, test was performed using a treadmill.

C57BL/6 mouse [4] = test: Memory improving effect, Morris water maze test in LPS brain disease model; assay type: in vivo
Procedure: Animal (8-week-old C57BL/6 mouse) experiment was carried out in order to test the effect of the compound according to the present invention of treating dementia and Parkinson's disease through improvement of memory. Before performing experiment, an animal model of brain disease was established by injecting LPS into the brain by stereotaxy. Test groups were divided depending on the administration of the test compound and exercise. Exercise condition was 5 minutes at 2 m/min, 5 minutes at 5 m/min, 5 minutes at 8 m/min, followed by 5 minutes at 20 m/min. Morris water maze test was performed at the end of the test. It was confirmed that the compound according to the present invention and exercise are effective in treating dementia and Parkinson's disease through improvement of memory.

C57BL/6 mouse [5] = test: Muscle endurance and muscle function in adult exercising mice (treadmill); assay type: in vivo; conditions: 10-week-old C57BL/6 mouse, 10 mg/kg oral, treadmill exercise 30 days
Procedure: Further, improvement of muscle endurance and muscle function was confirmed when the compound according to the present invention was administered to an adult. 10-week-old C57BL/6 mouse was let to exercise while orally administering Compound S185 or S186 (10 mg/kg). The mouse was let to exercise on a treadmill for 30 days, once a day for 30 minutes. Exercise condition was 5 minutes at 2 m/min, 5 minutes at 5 m/min, 5 minutes at 8 m/min, followed by 5 minutes at 20 m/min. At the end of the test, muscle endurance strengthening and muscle function improving effect was tested using a treadmill.

[6] = administered during Pregnancy + lactation

SMILES	EC50 hPPARγ (hPPARγ)	Atherosclerosis inhibiting effect improved as compared to the control group (ApoE−/− mice) [%]	Fatty liver treating effect (H&E stained liver tissue, FIG. 1) (C57BL/6 mouse [1])	Atherosclerosis inhibiting effect improved (Ldlr−/− mice) [%]	Fasting glucose level as compared to the control group [2]	Diabetes improving effect [2]	EC50 hPPARα (hPPARα)	EC50 (hPPARδ) [nM]	Body weight increase as compared to the vehicle group [3] [%]	Body weight or growth rate of the fetus, treated versus control group (mouse)	Type I muscle fiber (ATPase staining and immunostaining) (mouse)	Increase compared to control, Distance (mouse; administered during Lactation) [times]	Increase compared to control, Time (mouse; administered during Lactation) [times]	Increase compared to control, Distance (mouse; [6]) [times]	Increase compared to control, Time (mouse; [6]) [times]	Increase compared to control, Distance (mouse; administered during Pregnancy) [times]	Increase compared to control, Time (mouse; administered during Pregnancy) [times]	Water maze test result (C57BL/6 mouse [4]; Exercise (o)) [s]	Water maze test result (C57BL/6 mouse [4]; Exercise (x)) [s]	Exercise time and distance as compared to the control group (C57BL/6 mouse [5])
Cc1cc(SCc2[se]c(-c3ccc(C(F)(F)F)cc3)nc2C)ccc1OCC(=O)O [Compound S185]	ia	60	effective in preventing fatty liver	36	lower fasting glucose level	effective in improving diabetes	ia	0.66	39	No difference	increased type I muscle fiber	2.6	2.1	3.9	3.7	2.7	2.3	14	20	improvement both in exercise time and distance
Cc1cc([Se]Cc2[se]c(-c3ccc(C(F)(F)F)cc3)nc2C)ccc1OCC(=O)O [Compound S186]	ia				lower fasting glucose level	effective in improving diabetes	ia	4.27	42	No difference	increased type I muscle fiber	2.0	1.8	3.3	3.1	2.1	2.1	16	27	improvement both in exercise time and distance
